Results on 14 molecules are retold here after patent publication US8871753B2, “Macrocyclic compounds and their use as kinase inhibitors” (Incyte Corporation, priority 2008, dated 2014).

Type in all cases: biochemical
The target of assay [1] is TYK2 (Homo sapiens, UniProt P29597). The assay is described as follows: TYK2 kinase inhibition (Table A1). The following applies: Table B1.
In assay [2] the target is T1, human JAK1 (a.a. 837-1142) (Homo sapiens, UniProt P23458).
T1 construct: human JAK1 (a.a. 837-1142); His tag (N); made in house; host or cells: insect cells (baculovirus)
T1 sequence (P23458 849-1154): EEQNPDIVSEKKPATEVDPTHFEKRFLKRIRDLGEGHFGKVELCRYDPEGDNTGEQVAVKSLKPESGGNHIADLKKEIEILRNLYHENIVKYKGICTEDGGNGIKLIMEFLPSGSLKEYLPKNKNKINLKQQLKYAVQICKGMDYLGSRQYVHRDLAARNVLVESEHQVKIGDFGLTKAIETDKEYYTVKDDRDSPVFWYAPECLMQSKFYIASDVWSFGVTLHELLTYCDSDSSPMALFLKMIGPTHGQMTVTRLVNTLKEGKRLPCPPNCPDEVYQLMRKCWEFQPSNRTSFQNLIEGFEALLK
The assay is described as follows: In vitro JAK kinase assay (HTRF, phosphorylation of a biotinylated peptide), JAK1. The note with it: Table B1; read-out: JAK1 IC50. The method, boiled down: (§1)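 Kinase reactions ran at room temperature for 1 h with ATP matched per isoform (JAK1 90 μM, JAK2 30 μM, JAK3 3 μM). After an EDTA stop, the phosphorylated biotin-peptide was read by HTRF using Eu-Py20 and SA-APC after 40 min binding.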
On the technique in general: TR-FRET usually uses a lanthanide donor and a delayed reading to cut background.

The target in assay [3] is T2, Recombinant Human Anaplastic Lymphoma Kinase (Homo sapiens, UniProt Q9UM73).
T2 construct: purchased Invitrogen, Carlsbad, Calif
T2 sequence (Q9UM73 19-1620): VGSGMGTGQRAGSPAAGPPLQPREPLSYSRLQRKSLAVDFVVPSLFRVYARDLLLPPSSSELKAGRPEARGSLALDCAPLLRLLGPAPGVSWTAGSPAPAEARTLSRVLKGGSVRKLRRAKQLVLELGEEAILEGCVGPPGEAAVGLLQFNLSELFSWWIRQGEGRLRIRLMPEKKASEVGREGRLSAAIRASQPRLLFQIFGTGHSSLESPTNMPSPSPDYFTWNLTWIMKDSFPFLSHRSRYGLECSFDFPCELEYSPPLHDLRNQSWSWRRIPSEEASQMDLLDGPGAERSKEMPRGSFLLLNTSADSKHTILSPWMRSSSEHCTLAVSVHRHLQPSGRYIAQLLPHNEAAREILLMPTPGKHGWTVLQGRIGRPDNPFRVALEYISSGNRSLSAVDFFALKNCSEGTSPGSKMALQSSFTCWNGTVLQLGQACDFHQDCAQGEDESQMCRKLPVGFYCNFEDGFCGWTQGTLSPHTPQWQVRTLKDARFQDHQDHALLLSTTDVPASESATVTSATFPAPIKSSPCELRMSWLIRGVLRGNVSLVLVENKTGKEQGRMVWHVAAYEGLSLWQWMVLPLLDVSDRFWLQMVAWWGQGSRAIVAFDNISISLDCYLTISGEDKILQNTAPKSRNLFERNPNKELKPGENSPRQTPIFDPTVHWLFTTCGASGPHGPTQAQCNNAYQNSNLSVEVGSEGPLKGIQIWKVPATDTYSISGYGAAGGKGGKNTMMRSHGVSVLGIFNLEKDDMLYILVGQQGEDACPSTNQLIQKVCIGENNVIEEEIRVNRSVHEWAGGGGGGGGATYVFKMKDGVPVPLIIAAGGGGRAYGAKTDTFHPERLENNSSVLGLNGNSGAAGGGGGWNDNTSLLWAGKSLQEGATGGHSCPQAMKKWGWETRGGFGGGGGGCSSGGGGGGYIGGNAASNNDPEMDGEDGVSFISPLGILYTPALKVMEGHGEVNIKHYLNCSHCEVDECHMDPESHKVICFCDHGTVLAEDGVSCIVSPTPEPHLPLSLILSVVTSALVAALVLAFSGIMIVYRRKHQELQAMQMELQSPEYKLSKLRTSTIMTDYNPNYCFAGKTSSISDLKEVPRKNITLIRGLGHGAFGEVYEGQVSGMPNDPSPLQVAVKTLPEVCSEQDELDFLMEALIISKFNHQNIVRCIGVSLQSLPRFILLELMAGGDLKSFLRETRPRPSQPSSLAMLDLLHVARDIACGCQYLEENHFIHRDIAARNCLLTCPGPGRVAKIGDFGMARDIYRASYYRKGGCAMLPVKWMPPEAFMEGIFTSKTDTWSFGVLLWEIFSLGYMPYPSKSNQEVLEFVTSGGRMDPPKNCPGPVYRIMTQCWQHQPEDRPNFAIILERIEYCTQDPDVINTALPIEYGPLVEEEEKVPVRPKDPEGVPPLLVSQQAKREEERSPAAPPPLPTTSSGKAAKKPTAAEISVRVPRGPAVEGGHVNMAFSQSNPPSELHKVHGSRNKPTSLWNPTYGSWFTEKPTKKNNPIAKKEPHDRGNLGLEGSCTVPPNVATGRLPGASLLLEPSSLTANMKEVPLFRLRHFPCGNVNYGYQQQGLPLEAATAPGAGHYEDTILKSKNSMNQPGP
The assay is described as follows: ALK HTRF kinase assay. The note with it: Table B1; cells without percent sign. Put shortly:
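TR-FRET read-out (Eu anti-pTyr antibody + streptavidin-APC) of biotin-peptide phosphorylation by recombinant human enzyme; IC50 by sigmoidal fit with top/bottom baselines and Hill slope.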

Assay [4] concerns the target T3, human JAK2 (a.a. 828-1132) (Homo sapiens, UniProt O60674).
T3 construct: JAK2 (a.a. 828-1132); His tag (N); made in house; host or cells: insect cells (baculovirus)
The assay is described as follows: In vitro JAK kinase assay (HTRF, phosphorylation of a biotinylated peptide), JAK2. The note with it: Table B1. Put shortly:
as §1

The target in assay [5] is T4, human JAK3 (a.a. 781-1124) (Homo sapiens, UniProt P52333).
T4 construct: JAK3 (a.a. 781-1124); His tag (N); made in house; host or cells: insect cells (baculovirus)
T4 sequence (P52333 781-1124): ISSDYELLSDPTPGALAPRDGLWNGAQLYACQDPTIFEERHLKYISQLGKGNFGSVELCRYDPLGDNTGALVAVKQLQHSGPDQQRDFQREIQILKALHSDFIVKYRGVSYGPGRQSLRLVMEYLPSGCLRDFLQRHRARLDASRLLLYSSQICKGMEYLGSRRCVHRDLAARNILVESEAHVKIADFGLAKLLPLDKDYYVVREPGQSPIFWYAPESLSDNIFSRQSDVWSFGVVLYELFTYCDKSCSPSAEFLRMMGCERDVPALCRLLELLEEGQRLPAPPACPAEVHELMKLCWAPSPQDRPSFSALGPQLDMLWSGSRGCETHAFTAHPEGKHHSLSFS
The assay is described as follows: In vitro JAK kinase assay (HTRF, phosphorylation of a biotinylated peptide), JAK3. The note with it: Table B1. The method, boiled down:
as §1

The structures appear in SMILES notation. Structures can show the parent of a compound that is named as a salt. A value given as a limit tells only on which side of the number the result lay.

TYK2, sequence (P29597 whole entry): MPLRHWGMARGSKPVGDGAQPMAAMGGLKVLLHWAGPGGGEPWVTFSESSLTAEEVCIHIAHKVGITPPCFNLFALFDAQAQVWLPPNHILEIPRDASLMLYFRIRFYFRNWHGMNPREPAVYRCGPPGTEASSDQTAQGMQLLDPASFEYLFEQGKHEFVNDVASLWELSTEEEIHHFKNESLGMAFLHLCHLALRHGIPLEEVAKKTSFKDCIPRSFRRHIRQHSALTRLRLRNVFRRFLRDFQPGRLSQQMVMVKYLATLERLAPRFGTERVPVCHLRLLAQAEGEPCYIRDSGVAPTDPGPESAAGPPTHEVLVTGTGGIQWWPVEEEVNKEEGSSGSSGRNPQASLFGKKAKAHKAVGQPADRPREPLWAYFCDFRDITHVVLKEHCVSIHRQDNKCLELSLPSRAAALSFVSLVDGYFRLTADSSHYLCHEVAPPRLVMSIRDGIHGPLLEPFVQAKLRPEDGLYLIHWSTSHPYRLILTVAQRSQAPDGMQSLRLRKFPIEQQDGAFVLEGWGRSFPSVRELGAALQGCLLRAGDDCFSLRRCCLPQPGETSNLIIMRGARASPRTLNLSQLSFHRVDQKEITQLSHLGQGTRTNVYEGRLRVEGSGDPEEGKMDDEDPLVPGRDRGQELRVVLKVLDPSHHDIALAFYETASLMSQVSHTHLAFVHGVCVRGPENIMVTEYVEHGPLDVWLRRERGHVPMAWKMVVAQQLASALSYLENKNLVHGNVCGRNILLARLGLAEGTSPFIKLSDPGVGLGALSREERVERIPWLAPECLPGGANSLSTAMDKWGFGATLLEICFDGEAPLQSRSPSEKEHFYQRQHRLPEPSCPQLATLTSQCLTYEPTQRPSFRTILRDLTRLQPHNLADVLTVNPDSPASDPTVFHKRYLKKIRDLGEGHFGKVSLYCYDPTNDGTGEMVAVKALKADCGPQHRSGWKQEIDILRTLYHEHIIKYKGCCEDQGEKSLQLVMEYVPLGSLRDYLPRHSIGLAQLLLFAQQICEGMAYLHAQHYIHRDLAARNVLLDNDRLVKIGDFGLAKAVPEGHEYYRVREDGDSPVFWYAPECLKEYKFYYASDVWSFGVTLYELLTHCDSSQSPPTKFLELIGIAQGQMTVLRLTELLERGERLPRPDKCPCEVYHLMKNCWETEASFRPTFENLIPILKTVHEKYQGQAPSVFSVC
T3 sequence (O60674 828-1132): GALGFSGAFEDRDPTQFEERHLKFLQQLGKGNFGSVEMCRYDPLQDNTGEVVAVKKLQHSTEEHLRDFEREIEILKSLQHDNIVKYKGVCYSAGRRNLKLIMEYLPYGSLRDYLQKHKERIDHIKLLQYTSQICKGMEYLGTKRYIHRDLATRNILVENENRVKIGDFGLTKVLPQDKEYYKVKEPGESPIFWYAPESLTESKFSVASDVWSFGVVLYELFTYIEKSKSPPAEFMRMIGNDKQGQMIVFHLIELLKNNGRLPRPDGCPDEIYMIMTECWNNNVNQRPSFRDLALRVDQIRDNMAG

`O=C(Nc1ccc2cc1CCc1cccc(c1)Nc1ncc(Cl)c(n1)N2)C1CC1` [Example B27, N-[6-Chloro-2,4,8,22-tetraazatetracyclo[14.3.1.1(3,7).1(9,13)]docosa-1(20), 3(22),4,6,9(21),10,12,16,18-nonaen-12-yl]cyclopropanecarboxamide trifluoroacetate]: the IC50 (usually the concentration needed to halve the response being measured) in assay [1] came to 15 nM; in assay [2], 5.2 nM; in assay [3], 880 nM; in assay [4], 3.7 nM; in assay [5], 8.5 nM.
As to `COCC(=O)Nc1ccc2cc1CCc1cccc(c1)Nc1ncc(Cl)c(n1)N2` [Example B28, N-[6-Chloro-2,4,8,22-tetraazatetracyclo[14.3.1.1(3,7).1(9,13)]docosa-1(20), 3(22),4,6,9(21),10,12,16,18-nonaen-12-yl]-2-methoxyacetamide trifluoroacetate], the half-maximal inhibitory concentration (IC50) in assay [1] came out at 20 nM; in assay [2], 8.2 nM; in assay [3], 1800 nM; in assay [4], 4.1 nM; in assay [5] it was 10 nM.
With `O=C(Nc1ccc2cc1CCc1cccc(c1)Nc1ncc(Cl)c(n1)N2)c1ccccc1` [Example B29, N-[6-Chloro-2,4,8,22-tetraazatetracyclo[14.3.1.1(3,7).1(9,13)]docosa-1(20), 3(22),4,6,9(21),10,12,16,18-nonaen-12-yl]benzamide trifluoroacetate], the IC50 in assay [1] came out at 1.7 nM; in assay [2] it was 0.24 nM; in assay [3] it was 96 nM; in assay [4], 0.48 nM; in assay [5], 3.3 nM.
For `O=C(Nc1ccc2cc1CCc1cccc(c1)Nc1ncc(Cl)c(n1)N2)c1cccnc1` [Example B30, N-[6-Chloro-2,4,8,22-tetraazatetracyclo[14.3.1.1(3,7).1(9,13)]docosa-1(20), 3(22),4,6,9(21),10,12,16,18-nonaen-12-yl]nicotinamide bis(trifluoroacetate)] the same measures were 2.5 nM, 0.87 nM, 260 nM, 0.78 nM and 2.9 nM.
For the molecule `Cn1ccc(C(=O)Nc2ccc3cc2CCc2cccc(c2)Nc2ncc(Cl)c(n2)N3)n1` [Example B31, N-[6-Chloro-2,4,8,22-tetraazatetracyclo[14.3.1.1(3,7).1(9,13)]docosa-1(20), 3(22),4,6,9(21),10,12,16,18-nonaen-12-yl]-1-methyl-1H-pyrazole-3-carboxamide trifluoroacetate], the IC50 in assay [1] was 10 nM; in assay [2], 5.4 nM; in assay [3], greater than 10000 nM; in assay [4], 3.7 nM; in assay [5] it was 69 nM.
The matching figures for `O=C(Cc1ccccc1)Nc1ccc2cc1CCc1cccc(c1)Nc1ncc(Cl)c(n1)N2` [Example B32, N-[6-Chloro-2,4,8,22-tetraazatetracyclo[14.3.1.1(3,7).1(9,13)]docosa-1(20), 3(22),4,6,9(21),10,12,16,18-nonaen-12-yl]-2-phenylacetamide trifluoroacetate]: 2.7 nM, 2.8 nM, 940 nM, 1.6 nM and 5.5 nM.
`O=C(Nc1ccc2cc1CCc1cccc(c1)Nc1ncc(Cl)c(n1)N2)c1ccco1` [Example B33, N-[6-Chloro-2,4,8,22-tetraazatetracyclo[14.3.1.1(3,7).1(9,13)]docosa-1(20), 3(22),4,6,9(21),10,12,16,18-nonaen-12-yl]-2-furamide trifluoroacetate]: the IC50 in assay [1] amounted to 9.7 nM; in assay [2] it was 2.1 nM; in assay [3], 820 nM; in assay [4], 2.6 nM; in assay [5], 44 nM.
Take `O=C(Nc1ccc2cc1CCc1cccc(c1)Nc1ncc(Cl)c(n1)N2)c1cccs1` [Example B34, N-[6-Chloro-2,4,8,22-tetraazatetracyclo[14.3.1.1(3,7).1(9,13)]docosa-1(20),3(22),4,6,9(21),10,12,16,18-nonaen-12-yl]thiophene-2-carboxamide trifluoroacetate]: the IC50 came to 5.6 nM in assay [1]; 0.85 nM in assay [2]; 470 nM in assay [3]; 1 nM in assay [4]; 13 nM in assay [5].
The matching figures for `Cc1ccccc1C(=O)Nc1ccc2cc1CCc1cccc(c1)Nc1ncc(Cl)c(n1)N2` [Example B35, N-[6-Chloro-2,4,8,22-tetraazatetracyclo[14.3.1.1(3,7).1(9,13)]docosa-1(20), 3(22),4,6,9(21),10,12,16,18-nonaen-12-yl]-2-methylbenzamide trifluoroacetate]: 1.3 nM, 0.6 nM, 76 nM, 0.35 nM and 1.4 nM.
As to `COc1ccccc1C(=O)Nc1ccc2cc1CCc1cccc(c1)Nc1ncc(Cl)c(n1)N2` [Example B36, N-[6-Chloro-2,4,8,22-tetraazatetracyclo[14.3.1.1(3,7).1(9,13)]docosa-1(20), 3(22),4,6,9(21),10,12,16,18-nonaen-12-yl]-2-methoxybenzamide trifluoroacetate], the IC50 in assay [1] is 21 nM; in assay [2], 13 nM; in assay [3], greater than 1000 nM; in assay [4], 7.7 nM; in assay [5], 42 nM.
As for `O=C(Nc1ccc2cc1CCc1cccc(c1)Nc1ncc(Cl)c(n1)N2)c1ccccn1` [Example B37, N-[6-Chloro-2,4,8,22-tetraazatetracyclo[14.3.1.1(3,7).1(9,13)]docosa-1(20), 3(22),4,6,9(21),10,12,16,18-nonaen-12-yl]pyridine-2-carboxamide bis(trifluoroacetate)], the IC50 in assay [1] is 21 nM; in assay [2] it was 7.6 nM; in assay [3], greater than 10000 nM; in assay [4], 8.3 nM; in assay [5], 87 nM.
The matching figures for `O=C(Nc1ccc2cc1CCc1cccc(c1)Nc1ncc(Cl)c(n1)N2)c1ccccc1F` [Example B38, N-[6-Chloro-2,4,8,22-tetraazatetracyclo[14.3.1.1(3,7).1(9,13)]docosa-1(20), 3(22),4,6,9(21),10,12,16,18-nonaen-12-yl]-2-fluorobenzamide trifluoroacetate]: 0.97 nM, 1.4 nM, 210 nM, 0.26 nM and 4 nM.
The matching figures for `O=C(Nc1ccc2cc1CCc1cccc(c1)Nc1ncc(Cl)c(n1)N2)c1ccncc1` [Example B39, N-[6-Chloro-2,4,8,22-tetraazatetracyclo[14.3.1.1(3,7).1(9,13)]docosa-1(20), 3(22),4,6,9(21),10,12,16,18-nonaen-12-yl]isonicotinamide bis(trifluoroacetate)]: 0.66 nM, 0.2 nM, 86 nM, 0.12 nM and 2.7 nM.
For `Cc1noc(C)c1C(=O)Nc1ccc2cc1CCc1cccc(c1)Nc1ncc(Cl)c(n1)N2` [Example B40, N-[6-Chloro-2,4,8,22-tetraazatetracyclo[14.3.1.1(3,7).1(9,13)]docosa-1(20), 3(22),4,6,9(21),10,12,16,18-nonaen-12-yl]-3,5-dimethylisoxazole-4-carboxamide trifluoroacetate] the same measures were 2.1 nM, 1.4 nM, 430 nM, 0.55 nM and 3.6 nM.
